Source: article PMC12217109, “Development of novel benzamide class I selective lysine deacetylase inhibitors as potent anticancer agents” (Journal of Enzyme Inhibition and Medicinal Chemistry, 2025)

Experiments:
[1] = system: MCF7 breast cancer cell line; test: MTT cellular viability assay, MCF7; type: cell-based; conditions: Homo sapiens, 96 h
Description: The human A2780 ovarian (#93112519) and MCF-7 breast (#86012803) cancer cell lines were obtained from the European Cell Culture Collection (ECACC; Salisbury, UK). The human cardiac ventricular AC16 cell line (#SCC109) was obtained from Merck/Millipore (UK). The A2780 and MCF-7 cell lines were maintained in RPMI-1640 medium and the AC16 cell line was maintained in DMEM/F12 medium. Culture medium of all three cell lines was supplemented with 10% heat-inactivated foetal bovine serum (FBS) and 2 mM L-glutamine, with the cells maintained in a humidified 5% CO2 atmosphere at 37 °C. The media was changed every 72h and the cells passaged via trypsinisation (Trypsin EDTA, 0.25%) before reaching confluency.
Cytotoxicity of each compound against the cell lines was assessed using the MTT assay. Cells were seeded in three replicates into 96-well plates at a density of 2 × 10^3/well for 24h to facilitate cell attachment. Media was replaced with that containing either test compound (0–10µM) for A2780 and MCF7 cell lines, single concentration (10 µM) test compound for AC16 cell line, or drug vehicle (dimethyl sulphoxide; DMSO) and the cells incubated for a further 96 h at 37 °C in a humidified 5% CO2 atmosphere. […] Chemosensitivity was thereafter assessed using a standard 3-[4, 5-dimethylthiazolyl]-2,5-diphenyltetrazolium bromide (MTT) assay, with the optical density determined at 540 nm as an indicator of cellular viability.

OVCAR-5 = test: NCI-60 cytotoxicity screen; type: cell-based; conditions: Homo sapiens, NCI-60, 48 h, ovarian
T-47D = test: NCI-60 cytotoxicity screen; type: cell-based, human; conditions: for IC50: Homo sapiens, T47D, NCI-60, 48 h, breast
TK-10 = test: NCI-60 cytotoxicity screen; type: cell-based, human; conditions: for IC50: Homo sapiens, TK-10, NCI-60, 48 h, renal
Text: (§1) Compounds 3–7 were submitted to the US National Cancer Institute (NIH, Bethesda, Maryland) for screening against the NCI-60 panel of human cancer cell lines, as per standard protocol.

H322M = test: NCI-60 cytotoxicity screen; type: cell-based, human; conditions: for IC50: Homo sapiens, NCI-H322M, NCI-60, 48 h, NSCLC
Text: as §1

UACC-257 = test: NCI-60 cytotoxicity screen; type: cell-based, human; conditions: for IC50: Homo sapiens, UACC-257, NCI-60, 48 h, melanoma
Text: as §1

A549 = test: NCI-60 cytotoxicity screen; type: cell-based; conditions: Homo sapiens, NCI-60, 48 h, NSCLC
Text: as §1

HL-60 = test: NCI-60 cytotoxicity screen; type: cell-based; conditions: Homo sapiens, NCI-60, 48 h, leukaemia
Text: as §1

LOX IMVI = test: NCI-60 cytotoxicity screen; type: cell-based; conditions: Homo sapiens, NCI-60, 48 h, melanoma
Text: as §1

UACC-62 = test: NCI-60 cytotoxicity screen; type: cell-based; conditions: Homo sapiens, NCI-60, 48 h, melanoma
Text: as §1

SN12C = test: NCI-60 cytotoxicity screen; type: cell-based; conditions: Homo sapiens, NCI-60, 48 h, renal
Text: as §1

SK-MEL-28 = test: NCI-60 cytotoxicity screen; type: cell-based; conditions: Homo sapiens, NCI-60, 48 h, melanoma
Text: as §1

HS 578 T = test: NCI-60 cytotoxicity screen; type: cell-based; conditions: Homo sapiens, NCI-60, 48 h, breast
Text: as §1

EKVX = test: NCI-60 cytotoxicity screen; type: cell-based; conditions: Homo sapiens, NCI-60, 48 h, NSCLC
Text: as §1

IGROV-1 = test: NCI-60 cytotoxicity screen; type: cell-based; conditions: Homo sapiens, NCI-60, 48 h, ovarian
Text: as §1

HCT116 = test: NCI-60 cytotoxicity screen; type: cell-based; conditions: Homo sapiens, HCT-116; NCI-60, 48 h, colon
Text: as §1

H522 = test: NCI-60 cytotoxicity screen; type: cell-based; conditions: Homo sapiens, NCI-60, 48 h, NSCLC
Text: as §1

MDA-MB-435 = test: NCI-60 cytotoxicity screen; type: cell-based; conditions: Homo sapiens, NCI-60, 48 h, melanoma
Text: as §1

KM12 = test: NCI-60 cytotoxicity screen; type: cell-based; conditions: Homo sapiens, NCI-60, 48 h, colon
Text: as §1

OVCAR-3 = test: NCI-60 cytotoxicity screen; type: cell-based; conditions: Homo sapiens, NCI-60, 48 h, ovarian
Text: as §1

786-0 = test: NCI-60 cytotoxicity screen; type: cell-based; conditions: Homo sapiens, NCI-60, 48 h, renal
Text: as §1

DU-145 = test: NCI-60 cytotoxicity screen; type: cell-based; conditions: Homo sapiens, NCI-60, 48 h, prostate
Text: as §1

SF-295 = test: NCI-60 cytotoxicity screen; type: cell-based; conditions: Homo sapiens, NCI-60, 48 h, CNS
Text: as §1

MCF-7 = test: NCI-60 cytotoxicity screen; type: cell-based; conditions: Homo sapiens, MCF7; NCI-60, 48 h, breast
Text: as §1

RXF 393 = test: NCI-60 cytotoxicity screen; type: cell-based; conditions: Homo sapiens, NCI-60, 48 h, renal
Text: as §1

SNB-75 = test: NCI-60 cytotoxicity screen; type: cell-based; conditions: Homo sapiens, NCI-60, 48 h, CNS
Text: as §1

SW620 = test: NCI-60 cytotoxicity screen; type: cell-based; conditions: Homo sapiens, SW-620; NCI-60, 48 h, colon
Text: as §1

COLO205 = test: NCI-60 cytotoxicity screen; type: cell-based; conditions: Homo sapiens, COLO 205; NCI-60, 48 h, colon
Text: as §1

HCT15 = test: NCI-60 cytotoxicity screen; type: cell-based; conditions: Homo sapiens, HCT-15; NCI-60, 48 h, colon
Text: as §1

OVCAR-4 = test: NCI-60 cytotoxicity screen; type: cell-based; conditions: Homo sapiens, NCI-60, 48 h, ovarian
Text: as §1

HeLa nuclear KDACs = test: Fluor-de-Lys HDAC fluorometric activity assay with HeLa nuclear extract; type: biochemical; conditions: for IC50: HeLa nuclear extract, up to 20 µM, read-out: HDAC Inhibition IC50; for IC20: concentration inhibiting HDAC activity by 20%, read-out: HDAC Inhibition IC20
Description: Total zinc-dependent KDAC (classes I, II and IV) activity was measured using the Fluor-de-Lys^TM HDAC fluorometric activity assay kit (BioMol, Exeter, UK), as per manufacturers protocol. Briefly, HeLa nuclear extract, potential inhibitor (5 nM–20 μM) and assay buffer were incubated in a 96-well fluorometric plate at 37 °C for 15 min. Acetylated substrate (100 μM) was added and the mixture incubated at 37 °C for a further 20 min. The developer was added and the mixture incubated at 37 °C for a further 15 min. Fluorescence was measured using a microplate reader (λex = 360 nm, λem = 460 nm). Percentage KDAC activity and thus KDAC inhibition was determined by quantification of fluorescence obtained in the presence versus absence of the respective inhibitor.

In the case of C=C(CN1CCN(c2cccc(C(F)(F)F)c2)CC1)c1ccc(C(=O)Nc2ccccc2N)cc1 [Compound 4, N-(2-aminophenyl)-4–(3-(4–(3-(trifluoromethyl)phenyl)piperazin-1-yl)prop-1-en-2-yl)benzamide], the IC50 [1] is reported as 1.4 ± 0.1 µM, the IC50 (OVCAR-5) is reported as 6.62 µM and the IC50 (T-47D) is reported as 13.2 µM. For the same molecule, the “fold less sensitive than to 1, T-47D” value (T-47D; T-47D breast cell line) was > 28 fold, the IC50 (TK-10) was 0.81 µM and the “fold improvement in cytotoxicity sensitivity compared to 7, TK-10” value (TK-10; TK-10 renal) was ~20 fold. The “fold improvement in cytotoxicity sensitivity compared to 7, H322M” value (H322M; H322M NSCLC) was “approximately 100 fold”, the IC50 (H322M) was 0.94 µM and the IC50 (UACC-257) was 0.76 µM. For the same molecule, the “fold improvement in cytotoxicity sensitivity compared to 7, UACC-257” value (UACC-257; UACC-257 melanoma) was ~35 fold, the IC50 (A549) was 1.48 µM and the IC50 (HL-60) was 0.12 µM. The IC50 (LOX IMVI) was 0.12 µM, the IC50 (UACC-62) was 0.41 µM and the IC50 (SN12C) was 0.29 µM. It also gave an IC50 (SK-MEL-28) of 3.4 µM, an IC50 (HS 578 T) of 0.49 µM and an IC50 (EKVX) of 2.92 µM. The IC50 (IGROV-1) was 14.2 µM, the IC50 (HCT116) was 1.14 µM and the IC50 (H522) was 6.14 µM. It also gave an IC50 (MDA-MB-435) of 0.14 µM, an IC50 (KM12) of 0.49 µM and an IC50 (OVCAR-3) of 0.55 µM. For the same molecule, the IC50 (786-0) was 1.1 µM, the IC50 (DU-145) was 1.36 µM and the IC50 (SF-295) was 0.54 µM. The IC50 (MCF-7) was 1.24 µM, the IC50 (RXF 393) was 1.62 µM and the IC50 (SNB-75) was 0.01 µM. The IC50 (SW620) was 1.28 µM, the IC50 (COLO205) was 3.45 µM and the IC50 (HCT15) was 0.48 µM. The IC50 (OVCAR-4) was 3.94 µM, the IC50 (HeLa nuclear KDACs) was > 20 µM and the IC20 (HeLa nuclear KDACs) was 5 ± 1.5 µM.

In the case of C=C(CN1CCN(c2ccc(C(F)(F)F)cc2)CC1)c1ccc(C(=O)Nc2ccccc2N)cc1 [Compound 5, N-(2-aminophenyl)-4–(3-(4–(4-(trifluoromethyl)phenyl)piperazin-1-yl)prop-1-en-2-yl)benzamide], the IC50 [1] is reported as 0.4 ± 0.4 µM, the IC50 (OVCAR-5) is reported as > 100 µM and the IC50 (T-47D) is reported as 21.8 µM. It also gave an IC50 (TK-10) of 21 µM, an IC50 (H322M) of 40.5 µM and an IC50 (UACC-257) of 2.39 µM. The IC50 (A549) was 6.43 µM, the IC50 (HL-60) was 0.08 µM and the IC50 (LOX IMVI) was 11.1 µM. The IC50 (UACC-62) was 23 µM, the IC50 (SN12C) was 6.37 µM and the IC50 (SK-MEL-28) was > 100 µM. For the same molecule, the IC50 (HS 578 T) was 22.5 µM, the IC50 (EKVX) was 12.4 µM and the IC50 (IGROV-1) was 18.2 µM. For the same molecule, the IC50 (HCT116) was 11.4 µM, the IC50 (H522) was 1.85 µM and the IC50 (MDA-MB-435) was 25.2 µM. The IC50 (KM12) was 7.64 µM, the IC50 (OVCAR-3) was 12 µM and the IC50 (786-0) was 2.85 µM. The IC50 (DU-145) was 21 µM, the IC50 (SF-295) was 10.8 µM and the IC50 (MCF-7) was 10.9 µM. The IC50 (RXF 393) was 1.97 µM, the IC50 (SNB-75) was 12.5 µM and the IC50 (SW620) was 78.9 µM. The IC50 (COLO205) was > 100 µM, the IC50 (HCT15) was > 100 µM and the IC50 (OVCAR-4) was 5.68 µM. The IC50 (HeLa nuclear KDACs) was > 20 µM and the IC20 (HeLa nuclear KDACs) was 5.8 ± 1.8 µM.

C=C(CN1CCN(c2ccccn2)CC1)c1ccc(C(=O)Nc2ccccc2N)cc1 [Compound 6, N-(2-aminophenyl)-4–(3-(4-(pyridin-2-yl)piperazin-1-yl)prop-1-en-2-yl)benzamide] gave an IC50 [1] of 3.2 ± 0.8 µM, an IC50 (OVCAR-5) of 6.1 µM and an IC50 (T-47D) of 1.23 µM. It also gave an IC50 (TK-10) of 1.85 µM, an IC50 (H322M) of 3.12 µM and an IC50 (UACC-257) of 2.32 µM. For the same molecule, the IC50 (A549) was 2.39 µM, the IC50 (HL-60) was 2.19 µM and the IC50 (LOX IMVI) was 0.93 µM. It also gave an IC50 (UACC-62) of 1.41 µM, an IC50 (SN12C) of 2.36 µM and an IC50 (SK-MEL-28) of 2.52 µM. For the same molecule, the IC50 (HS 578 T) was 1.11 µM, the IC50 (EKVX) was 5.33 µM and the IC50 (IGROV-1) was 1.57 µM. For the same molecule, the IC50 (HCT116) was 2.5 µM, the IC50 (H522) was 1.56 µM and the IC50 (MDA-MB-435) was 0.53 µM. The IC50 (KM12) was 0.94 µM, the IC50 (OVCAR-3) was 1.24 µM and the IC50 (786-0) was 1.21 µM. It also gave an IC50 (DU-145) of 2.52 µM, an IC50 (SF-295) of 1.39 µM and an IC50 (MCF-7) of 3.16 µM. For the same molecule, the IC50 (RXF 393) was 1.55 µM, the IC50 (SNB-75) was 1.48 µM and the IC50 (SW620) was 1.71 µM. The IC50 (COLO205) was 1.71 µM, the IC50 (HCT15) was 1.91 µM and the IC50 (OVCAR-4) was 6.35 µM. For the same molecule, the IC50 (HeLa nuclear KDACs) was > 20 µM and the IC20 (HeLa nuclear KDACs) was > 10 µM.
